Like-named read-outs stand apart in the source and are kept apart here.
How the values were obtained:
HCT116 cells = assay: Growth inhibition assay (MTS); assay type: cell-based; conditions: Homo sapiens, read-out: Growth Inhibition (GI50, uM) HCT116
Method: (§1) SW480 or HCT116 cells were placed into 96 well microplate (10^4cells/well) and incubated for 24 hours at 37° C. 20 μl of [3-(4,5-dimethylthiazol-2-yl)-5-(3-carboxyphenyl)-2-(4-sulfophenyl)-2H-tetrazolium, inner salt](MTS) solution (Promega) was added into each well and the absorbance after 2 hour incubation at 37° C. (negative control) was read. And then, the cells were treated with TCF4 compound at various concentrations for 48 hours. 20 μl of MTS solution (Promega) was added into each well and incubated for 2 hour at 37° C. Cell viability was measured by reading the absorbance at 490 nm using a microplate reader (Molecular device) and cytotoxicity of a compound at each concentration was calculated.
as §1, with “a test” for “TCF4”

SW480 cells = assay: Growth inhibition assay (MTS); assay type: cell-based; conditions: Homo sapiens, read-out: Growth Inhibition (GI50, uM) SW480
Method: as §1
as §1, with “a test” for “TCF4”

[1] = HCT-116, 48 h, Table 5, HCT116 cells, 48 hours treatment, MTS
[2] = SW480, 48 h, Table 5, SW480 cells, 48 hours treatment, MTS

Compound `C=CCN1CC(=O)N2[C@@H](Cc3ccc(OC(=O)NCCN(C)C)cc3)C(=O)N(Cc3ccc(F)cc3F)C[C@@H]2N1C(=O)NCc1ccccc1` [Compound 143] has a GI50 (HCT116 cells; HCT-116, 48 h) of 1.2 ± 0.1 µM and a GI50 (SW480 cells; SW480, 48 h) of 1.2 ± 0.1 µM.
`C#CCN1CC(=O)N2[C@@H](Cc3ccc(O)cc3)C(=O)N(Cc3ccc4c(c3)OCCO4)C[C@@H]2N1C(=O)NCc1ccccc1` [Compound 107] gave a GI50 (HCT116 cells; [1]) of 1.6 ± 0.1 µM and a GI50 (SW480 cells; [2]) of 1.6 ± 0.1 µM.
`[2H]c1cc(C[C@H]2C(=O)N(Cc3cccc4ccccc34)C[C@H]3N2C(=O)CN(C)N3C(=O)NCc2ccccc2)cc([2H])c1O` [Compound 136] showed a GI50 (HCT116 cells; [1]) of 3 ± 0.9 µM and a GI50 (SW480 cells; [2]) of 3.4 ± 0.4 µM.
Compound `CN1CC(=O)N2[C@@H](Cc3ccc(O)cc3)C(=O)N(Cc3ccc4cccnc4c3)C[C@@H]2N1C(=O)NCc1ccccc1` [Compound 70] has a GI50 (HCT116 cells; [1]) of 7.2 ± 0.7 µM and a GI50 (SW480 cells; [2]) of 7.4 ± 0.6 µM.
`CN1CC(=O)N2[C@@H](Cc3ccc(O)cc3)C(=O)N(Cc3cccc4ccccc34)C[C@@H]2N1C(=O)NCc1ccccc1` [Compound 60] showed a GI50 (HCT116 cells; [1]) of 6.3 ± 2.6 µM and a GI50 (SW480 cells; [2]) of 8.3 ± 1.4 µM.
For `C=CCN1CC(=O)N2[C@@H](Cc3ccc(O)cc3)C(=O)N(Cc3cccc4c3N(C)CCO4)C[C@@H]2N1C(=O)NCc1ccccc1` [Compound 117], the GI50 (HCT116 cells; [1]) was 0.3 ± 0.02 µM and the GI50 (SW480 cells; [2]) was 0.6 ± 0.1 µM.
Compound `CN(C)CCn1ncc2cccc(CN3C[C@H]4N(C(=O)CN(C)N4C(=O)NCc4ccccc4)[C@@H](Cc4ccc(O)cc4)C3=O)c21` [Compound 62] has a GI50 (HCT116 cells; [1]) of 23.5 ± 2.7 µM and a GI50 (SW480 cells; [2]) of 35.3 ± 4.6 µM.
In the case of `C=CCN1CC(=O)N2[C@@H](Cc3ccc(O)cc3)C(=O)N(Cc3ccc4ncsc4c3)C[C@@H]2N1C(=O)NCc1ccccc1` [Compound 114], the GI50 (HCT116 cells; [1]) is reported as 1.9 ± 0.2 µM and the GI50 (SW480 cells; [2]) is reported as 1.7 ± 0.7 µM.
Compound `CN(c1cccc(CN2C[C@H]3N(C(=O)CN(C)N3C(=O)NCc3ccccc3)[C@@H](Cc3ccc(O)cc3)C2=O)c1)C1CC1` [Compound 36] has a GI50 (HCT116 cells; [1]) of 12.7 ± 1.3 µM and a GI50 (SW480 cells; [2]) of 21.9 ± 2.3 µM.
`CN1CC(=O)N2[C@@H](Cc3ccc(O)cc3)C(=O)N(Cc3cccc4cnn(Cc5cccc(N)c5)c34)C[C@@H]2N1C(=O)NCc1ccccc1` [Compound 67] gave a GI50 (HCT116 cells; [1]) of 0.3 ± 0.03 µM and a GI50 (SW480 cells; [2]) of 0.6 ± 0.2 µM.
For `CN1CC(=O)N2[C@@H](Cc3ccc(O)cc3)C(=O)N(Cc3cccc(C(F)(F)F)c3)C[C@@H]2N1C(=O)NCc1ccccc1` [Compound 14], the GI50 (HCT116 cells; [1]) was 2.1 µM and the GI50 (SW480 cells; [2]) was 2.7 µM.
Compound `C=CCN1CC(=O)N2[C@@H](CN([C@H](C)c3ccc(Cl)c4cccnc34)C(=O)[C@@H]2Cc2ccc(O)cc2)N1C(=O)NCc1ccccc1` [Compound 159] has a GI50 (HCT116 cells; [1]) of 8.2 ± 0.4 µM and a GI50 (SW480 cells; [2]) of 9.1 ± 0.5 µM.
`[2H]C([2H])(c1ccc(O)cc1)[C@H]1C(=O)N(Cc2cccc3ccccc23)C[C@H]2N1C(=O)CN(C)N2C(=O)NCc1ccccc1` [Compound 135] gave a GI50 (HCT116 cells; [1]) of 3.1 ± 0.8 µM and a GI50 (SW480 cells; [2]) of 3.2 ± 0.4 µM.
For `CN1CC(=O)N2[C@@H](Cc3ccc(O)cc3)C(=O)N(Cc3cccc4cccnc34)C[C@@H]2N1C(=O)NCc1ccccc1` [Compound 8], the GI50 (HCT116 cells; [1]) was under 0.3 µM and the GI50 (SW480 cells; [2]) was under 0.3 µM.
For `C=CCN1CC(=O)N2[C@@H](Cc3ccc(O)cc3)C(=O)N(Cc3ccc(OC(F)(F)F)cc3)C[C@@H]2N1C(=O)NCc1ccccc1` [Compound 181], the GI50 (HCT116 cells; [1]) was 2.3 ± 0.1 µM and the GI50 (SW480 cells; [2]) was 2.3 ± 0.1 µM.
`CN1CC(=O)N2[C@@H](Cc3ccc(O)cc3)C(=O)N(Cc3ccccc3OC(F)(F)F)C[C@@H]2N1C(=O)NCc1ccccc1` [Compound 5] showed a GI50 (HCT116 cells; [1]) of 2.06 µM and a GI50 (SW480 cells; [2]) of 2.32 µM.
Work on `CCN1CC(=O)N2[C@@H](Cc3ccc(O)cc3)C(=O)N(Cc3ccc(Cl)c(N(C)C)c3)C[C@@H]2N1C(=O)NCc1ccccc1` [Compound 97] yielded a GI50 (HCT116 cells; [1]) of 5.2 ± 0.5 µM and a GI50 (SW480 cells; [2]) of 7.1 ± 1 µM.
With `C=CCN1CC(=O)N2[C@@H](Cc3ccc(O)cc3)C(=O)N(Cc3ccc(F)c(F)c3)C[C@@H]2N1C(=O)NCc1ccccc1` [Compound 148] the GI50 (HCT116 cells; [1]) was 1 ± 0.3 µM and the GI50 (SW480 cells; [2]) was 1.3 ± 0.1 µM.
With `C#CCN1CC(=O)N2[C@@H](Cc3ccc(O)cc3)C(=O)N(Cc3ccc(F)cc3F)[C@@H](C)[C@@H]2N1C(=O)NCc1ccccc1` [Compound 84] the GI50 (HCT116 cells; HCT-116, Table 5, HCT116 cells, 48 hours treatment, MTS) was 9.9 ± 1 µM and the GI50 (SW480 cells; Table 5, SW480 cells, 48 hours treatment, MTS) was 8.4 ± 1.1 µM.
`CCN(CC)c1cc(F)ccc1[C@H](C)N1C[C@H]2N(C(=O)CN(C)N2C(=O)NCc2ccccc2)[C@@H](Cc2ccc(O)cc2)C1=O` [Compound 41] gave a GI50 (HCT116 cells; [1]) of 14.7 ± 2.6 µM and a GI50 (SW480 cells; [2]) of 34.4 ± 9.6 µM.
In the case of `C=CCN1CC(=O)N2[C@@H](Cc3ccc(O)cc3)C(=O)N(Cc3cc(C)cc4c3N(C)CCO4)C[C@@H]2N1C(=O)NCc1ccccc1` [Compound 137], the GI50 (HCT116 cells; [1]) is reported as 1.3 ± 0.3 µM and the GI50 (SW480 cells; [2]) is reported as 1.4 ± 0.4 µM.
Work on `CN(C)c1ccc(C[C@H]2C(=O)N(Cc3cccc4ccccc34)C[C@H]3N2C(=O)CN(C)N3C(=O)NCc2ccccc2)cc1` [Compound 43] yielded a GI50 (HCT116 cells; [1]) of 39.1 µM and a GI50 (SW480 cells; [2]) of over 50 µM.

Reference: patent publication US7671054B1, “Reverse-turn mimetics and method relating thereto” (Choongwae Pharma Corporation, priority 2001, dated 2010)
